Earlier results in publication PMC9298787 (The Prostate, 2021).
“And” between values parts separate entries of the source, which are not always exact repeats. Identical values can stand only once.

Details: single oral 160 mg enzalutamide, fasting, three matched healthy controls

CNC(=O)c1ccc(N2C(=S)N(c3ccc(C#N)c(C(F)(F)F)c3)C(=O)C2(C)C)cc1F [enzalutamide]
AUC0‐∞: 245.8 µg·h/mL and 224.8 µg·h/mL
Cmax: 3800 ng/mL and 4600 ng/mL
t1/2: 115.3 h and 108.3 h and 111.6 h
